The source of these data is patent US20250195468A1, “METHODS AND COMPOSITIONS FOR TREATING COLORECTAL CANCER WITH INDOXYL SULFATE” (National Institute of Immunology, priority 2023, published 2025).

SMILES strings stand for the structures. Where a name gives a salt, the structure may show the parent alone.

For data set [1], the system named is HCT-116 cells. In words: Cell cycle assay, PI flow cytometry. In kind it is cell-based, human. Conditions: HCT-116, 48 hours, 5 mM and 10 mM (not resolved); increased from 18.1±1.99. The procedure: (§1) The evaluation of the effect of IS on the progression of HCT-116 and HT-29 cell cycle assay involved analysing the G0/G1 phase, Synthesis(S) phase, and G2/M phase. Cells were initially cultured in a 6-well plate with a seeding density of (2×10^5) cells/well in duplicate. After 24 hours of seeding, the cells were treated with varying concentrations of IS (1.25 mM, 5 mM, and 10 mM). Following a 48-hour processing period, the cells were detached using trypsin and washed twice with refrigerated PBS. The resulting cell pellet was then dissolved in 200 ul of chilled PBS and fixed by adding 800 ul of 70% ethanol dropwise. The samples were stored at −20° C. overnight for later use. After the overnight incubation, the cells were centrifuged at 2000 rpm for 5 minutes at 4° C. The pellet was dissolved in 300 ul of PBS, 50 ul of RNase A (100 ug/ml), and 35 ul of Triton X-100 (0.1%), and incubated at 37° C. for 30 minutes. Subsequently, 20 ul of PI was added from a stock solution of 500 μg/ml, and the samples were incubated in the dark for an additional 30 minutes. Flow cytometry (BD Biosciences, FACS Verse, Germany) was employed to measure PI staining in 1×10^3 cells. The Flow Jo software was utilized for the analysis of cell distribution across the different phases of the cell cycle.

Data set [2] relates to HT-29 cells. In words: Cell cycle assay, PI flow cytometry. In kind it is cell-based, human. Conditions: HT-29, 48 hours, 5 mM and 10 mM (not resolved); increased from 14.2±0.5. The procedure:
as §1
Background: A flow cytometer gives signals particle by particle.

The subject of data set [3] is HCT-116 cells. In words: Membrane integrity by LDH assay. In kind it is cell-based, human. Conditions: 48 hours, 0.1% Triton X-100 = 100%. The method, then:
(§2) Membrane integrity was assessed using the LDH based in vitro toxicology kit obtained from Sigma-Aldrich. The assay was conducted following the manufacturer's protocol. HCT-116 and HT-29 cells were cultured in a 96-well plate at a density of 10,000 cells per well. After 24 hours of seeding, the cells were treated with IS at concentrations of 1.25 mM, 5 mM, and 10 mM. Following a 48-hour treatment period, the cells were centrifuged, and 100 μl of supernatant was collected into a fresh 96-well plate to measure the amount of LDH released into the media by necrotic cells. Subsequently, 100 μl of the dosing reagent was added and incubated for 30 minutes at 37° C. After incubation, 20 μl of […] stop solution was added. Absorbance was measured at 690 nm and 490 nm using a ClarioStar plate reader (BMG Labtech, Ortenberg, Germany). The background absorbance at 690 nm was subtracted from the 490 nm absorbance. For the positive control, 0.1% Triton X-100 was used and considered as maximum LDH release. Untreated cells served as the negative control. The membrane integrity of IS-exposed cells was compared to that of untreated cells. The following formula was used to calculate the LDH release from the cells: Experimental LDH release (OD490)×100/maximum LDH release (OD490).

Data set [4] has as its system HT-29 cells. In words: Membrane integrity by LDH assay. In kind it is cell-based, human. Conditions: 48 hours, 0.1% Triton X-100 = 100%. The method, then: as §2
Data set [5] has as its system human adenocarcinoma cells. Briefly: Oxidative stress by DHE staining. In kind it is cell-based. The following applies: DHE staining after 48 hours of treatment. The method, then:
(§3) In the in vitro study, cells were exposed to various doses of indoxyl sulfate ranging from 0.038 mM to 10 mM for three different incubation periods (24 hours, 48 hours, and 72 hours). A decrease in cell proliferation efficiency was observed after 48 hours of treatment, with the most significant effects observed at concentrations of 5 mM and 10 mM of indoxyl sulfate. […] Decrease in cellular ATP content indicates the diminished cellular metabolic activity and may be linked with cell death. Considering these findings. the apoptotic effect of indoxyl sulfate was examined. […] Another study on the osteoblast cell line MC3T3-E1 also confirmed that IS acts as a bone toxin by inducing cell apoptosis and inhibiting differentiation. […] To account for this study. cells were also assessed for oxidative stress in this invention by staining them with […] (DHE) after 48 hours of treatment. […] The potential for IS to cause DNA damage was also investigated.

Data set [6] has as its system HT-29 cells. Briefly: CellTiter-Glo luminescent cell viability assay (ATP content). In kind it is cell-based. Conditions: Homo sapiens; HT-29, 72 hours; concentration not stated in b112 (FIG. 2: most cytotoxic at 10 mM). The procedure: Cell viability was also assessed using the CellTiter-Glo R: Assay kit, which measures the amount of ATP to indicate cellular metabolic activity. HT-29 and HCT-116 cells were cultured in a 96-well plate at a density of 2500 cells per well. After 24 hours of seeding, the cells were exposed to various concentrations of IS, including 0.018 mM, 0.037 mM, 0.075 mM. 0.15 mM, 0.31 mM, 0.62 mM, 1.25 mM, 2.5 mM, 5 mM, and 10 mM. Triplicate wells were treated with IS for two different incubation periods: 48 hours and 72 hours. After the respective incubation periods. the assay was performed following the manufacturer's protocol. The details of the protocol can be found in the kit provided by the manufacturer. In summary, luminescence was measured using a Sirius Luminometer V3.2 (Berthold DETECTIONN SYSTEMS) with a measurement delay time of 2 seconds and a measurement time of 5 seconds. Non-treated cells were used as controls, representing 100% metabolically active cells in terms of ATP content.
On the technique in general: In ATP-based viability assays light output follows the ATP content of the culture.

Data set [7] concerns human adenocarcinoma cells. In words: Comet assay (DNA damage). The following applies: cell lysate after IS treatment. In kind it is cell-based. The procedure: as §3
The subject of data set [8] is HCT-116 cells. Briefly: Cellular imaging (cell morphology). The following applies: HCT-116, 1.25-10 mM, 24, 48, 72 hours. In kind it is cell-based, human. The method, then: (§4) To assess the morphological changes of the cells following treatment, HT-29 and HCT-116 cells were cultured in 12-well plates at a concentration of […] cells per well. After 24 hours of seeding, the cells were treated with IS at concentrations of 1.25 mM, 5 mM, and 10 mM. The cells were exposed to IS in triplicate for three different incubation periods: 24 hours, 48 hours, and 72 hours. After the respective incubation periods, the cells were examined using a Nikon microscope equipped with a 20× objective. Images were captured using a digital camera and the NIS-Elements 3.0 software.

The test system of data set [9] is HT-29 cells. In words: Cellular imaging (cell morphology). In kind it is cell-based, human. The following applies: HT-29, 1.25-10 mM, 24, 48, 72 hours. The method, then: as §4

The term viability denotes a per cent measure of how many cells are alive, often set against a control. As for `O=S(=O)(O)Oc1c[nH]c2ccccc12` [IS, Indoxyl Sulfate], the “number of cells in the G2/M phase” value worked out at 22.7±3.2 in the data set on HCT-116 cells [1] and 17.3±0.7 with HT-29 cells [2]. Also, the “LDH release in the supernatant” value in the data set on HCT-116 cells [3] (HCT-116, 5 mM) was 80%; with HCT-116 cells [3] (HCT-116, 10 mM) it was 86%; with HT-29 cells [4] (HT-29, 5 mM), 82%; in the data set with HT-29 cells [4] (HT-29, 10 mM) it was 85%. Besides, the “production of ROS” value in data set [5] is “did not cause any production of ROS”. Further, the viability at 10000 µM in the data set with HT-29 cells [6] amounted to 19%. Also, the “DNA damage (comet formation)” value in [7] is on record as “does not show formation of any comet”. Moreover, the cell morphology result with HCT-116 cells [8] was “rounded morphology, reduced cell numbers, and detachment from the culture substrate”; in the data set with HT-29 cells [9] it was “rounded morphology, reduced cell numbers, and detachment from the culture substrate”.
